“Also recorded” adds a separate entry of the source. Structures can show the parent of a compound that is named as a salt. Where two headings read alike, the source gives them in different places. Marks after values point to notes of the source that are not given here.
Experiments:
[1] = comparative forced degradation of bupropion HCl and HBr API salts, closed bottle, 40° C./75% RH; format: physicochemical
Experimental: These studies were performed in closed bottles in a stability chamber kept at about 40 degrees C. and about 75% relative humidity. At specified times, the material in the bottles was analyzed for the presence of degradation products and % potency (% assay).
The samples were exposed to the above conditions in a closed bottle for few days, and then subjected to HPLC analysis.
The amount of the main degradation products present after treatment were compared with those amounts that were present initially.
The samples were analyzed after 14 and 24 days (study-1) and 10 days (study II), in a quantitative manner by direct treatment of the whole content of the bottle as per the HPLC standard test method (P05.901.10).

[2] = forced degradation of bupropion HBr and HCl in the presence of excipients at 55° C., 55° C./100% RH, 100° C., 105° C. (incl. TGA at 100° C.); format: physicochemical; conditions: TGA experiment at 100° C.
Protocol: Further forced degradation studies were carried out at 55° C., at 55° C. and 100% relative humidity, at 100° C., and at 105° C. on both the HCl and HBr Bupropion salts in the presence of excipients. […] FIG. 53 is a graph showing the loss of each salt over time in a TGA experiment at 100° C.

[3] = tested on: CD-1 mice; test: cortical EEG and behaviour in mice at convulsive and non-convulsive doses; conditions: 150 mg/kg i.p.; for seizure-like behavioural activity over time, second study pair: time after injection
Experimental: Test system: 30 healthy female mice, of strain CD-1, having a bodyweight of 25-29 g, were acclimatized for a minimum period of 4 days and used for this study. Each animal, after allocation to groups, was identified by markings on the dorsal surface of the tail. Environmental conditions included a temperature of 22±3° C., and artificial lighting of 12 hours light/dark cycle. Routine activities such as cleaning, feeding and watering were performed according to the RCSl's current SOPS.
The diluent used was 0.9% sodium chloride solution. Storage temperature was at about 25° C.
Test Item Administration: The test item was administered intraperitoneally using a disposable syringe with a 1 ml syringe and 26 g needle. The route of administration was intraperitoneal.
Protocol: Habituated mice were anesthetized with isofolurane, placed in a stereotaxic frame and maintained normothermic (36-37° C.) by means of a feedback-controlled mouse-designed homeothermic blanket (Harvard Apparatus). Under isoflurane anaesthesia, a midline skill incision was made over the skull and the skull exposed. Three partial craniectomies were performed: one overlying each temporal lobe and a third across the region overlying frontal cortex. Mouse-sized cranial EEG (E363/20, electrode with mounting screw and socket, Plastics One Inc) were affixed at each point. The electrode assembly was affixed to the skull with dental cement and then anaesthesia discontinued and the animal placed in the recording chamber for 30-60 minutes after recovery. Electrodes were then connected to a multichannel 363 Connector Cable system with SL6C 6 channel swivel commutator and baseline EEG recordings commenced using a Grass model Comet Portable 40-channel Digital EEG & Review System with Twin digital EEG in tandem with continuous digital video. […] Mice were run in parallel so that a hydrochloride mouse was injected within minutes of a hydrobromide mouse and recordings made simultaneously. Video-EEG was recorded for a period of one (1) hour. Afterwards, mice were returned to cages and then euthanized at 24 h and brains harvested.
Analysis: The duration of type IV polyspike high frequency (>1 Hz) high amplitude (>2× baseline) was determined for each mouse over the 1 h recording period.

[4] = tested on: CD-1 mice; test: clonic convulsions in CD-1 mice after intraperitoneal dosing (range finding and main study)
Experimental: Two studies were performed to investigate the relative proconvulsant properties of the two bupropion salts. In the first instance a range finding study was performed to establish the appropriate dose range for the main study. In each study the mice were divided into two dose groups and injected intraperitoneally with either bupropion HCl or bupropion HBr.
A clonic convulsion was defined as a stiffening of the animal followed by jerking movements. The convulsions were classified as mild, moderate and severe according to the following descriptions.
Mild: Head and tail slightly extended and little jerking
Moderate: Head and tail fully extended with some jerking
Severe: Head and tail fully extended with strong jerking
Post-treatment findings recorded included continuous observation for 120 minutes for evidence of clonic convulsions, and intermittent (fixed) observations for 24 hours for other signs, including tonic convulsions, movement, activity, paralysis, gait and evidence of recovery.

[5] = tested on: mice; test: Proconvulsant properties of bupropion salts: clonic convulsions in mice; conditions: for Mean Number of Convulsions/Mouse / Total Number of convulsions: N=13
Experimental: Number of convulsions and the intensity of the convulsions were recorded.
Mild: Head and tail slightly extended and little jerking; Moderate: Head and tail fully extended with some jerking; Severe: Head and tail fully extended with strong jerking. […] Step 2: To further investigate the patterns of convulsion occurrence using loglinear Poisson regression models. The number of convulsions was analyzed using the loglinear Poisson regression models with formulation, dose, and severity as predictors.

[6] = tested on: rat; conditions: for NUMBER OF ANIMALS WITH SEIZURE ACTIVITY / DURATION OF INITIAL SEIZURE CORTEX mean ± s.e.m. / DURATION OF INITIAL SEIZURE HIPPOCAMPUS mean ± s.e.m.: 100 mg/kg i.p., long seizure activity; for NUMBER OF ANIMALS WITH SEIZURE ACTIVITY: 10 rats per group, HBr dose in HCl molar equivalent
[7] = forced degradation stability study of bupropion salts in vials, 40 degrees C./75% RH, HPLC assay and impurities; conditions: for order of stability (assay, % potency): salt plus excipients, 20 days, 40 degrees C./75% RH
[8] = two batches of each API, 10 days
[9] = spiked with IPA/EtOH, closed vials, 32 days
[10] = 100 mg/kg i.p., pooled data N = 13/dose group, hydrochloride
[11] = 150 mg/kg i.p., pooled data N = 13/dose group, hydrochloride
[12] = 150 mg/kg, Moderate, hydrochloride
[13] = 150 mg/kg, Severe, hydrochloride

Br.CC(NC(C)(C)C)C(=O)c1cccc(Cl)c1 (stereo not shown) [bupropion hydrobromide]
resulting degradation products, HBr versus HCl ([1]; 14 and 24 days (study-1)): either similar or better for the HBr salt
level of bupropion degradation impurities, HBr versus HCl [1, 8]: lower than bupropion HCl
disproportionation of the salt at elevated temperatures (TGA, loss of API) [2]: did not occur
duration of convulsive behavior, hydrobromide versus hydrochloride ([3]; study pairs 1, 2 and 3): lasted longer than the hydrochloride-treated mouse
seizure-like behavioural activity over time, second study pair [3]: still observing rearing and falling, forepaw running and turning in the hydrobromide-treated mouse at 60 minutes
reduction in the number of convulsant mice versus HCl salt ([4]; […] dose level, pooled data): 15.4%
Mean Number of Convulsions/Mouse, cumulative ([5]; 100 mg/kg, All): 0.77
NUMBER OF ANIMALS WITH SEIZURE ACTIVITY [6]: 4*
DURATION OF INITIAL SEIZURE CORTEX mean ± s.e.m. [6]: 31 ± 6
DURATION OF INITIAL SEIZURE HIPPOCAMPUS mean ± s.e.m. [6]: 23 ± 2
dead ([6]; in vivo, ip, 100 mg/kg): #dead (1/10).
In water, 852U77: order of impurity content [7]: fumarate > HBr > maleate > HCl
In water, Total imp.: order of impurity content [7]: fumarate > HBr > HCl > tosylate > maleate
order of stability (assay, % potency) ([7]; closed vials): HBr>HCl≈tosylate>fumarate>maleate
In IPA/EtOH, 3-CBZ: order of impurity content [7, 9]: maleate > HBr > HCl > Fumarate
In IPA/EtOH, 852U77: order of impurity content [7, 9]: fumarate > HBr ≈HCl ≈maleate ≈tosylate
In IPA/EtOH, Total imp.: order of impurity content [7, 9]: fumarate > maleate > HBr > HCl > tosylate
In water, 3-CBZ: order of impurity content ([7]; spiked with water, closed vials, 32 days): HCl > HBr≈maleate≈fumarate

CC(NC(C)(C)C)C(=O)c1cccc(Cl)c1.Cl (racemic) [bupropion hydrochloride, (±)-1-(3-chlorophenyl)-2-[(1,1-dimethylethyl)amino]-1-propanone hydrochloride]
disproportionation of the salt at elevated temperatures (TGA, loss of API) [2]: disproportionation of the HCl salt occurs with concomitant loss of gaseous HCl
seizure EEG ([3]; n=4 per salt, cortical electrodes, 1 h, listed as HCl, hydrochloride): no seizure EEG; also recorded: two very brief EEG bursts; also recorded: brief burst of seizure
seizure-like behavioural activity over time, second study pair [3]: about 30 mins
severity of seizure activity in the initial behavioral study ([4]; CD-1 mice): more severe
Mean Number of Convulsions/Mouse, cumulative ([5]; 100 mg/kg, All): 0.23
odds of number of convulsions vs the bupropion hydrobromide group ([5]; loglinear Poisson regression, adjusted for dose and severity): 1.41
NUMBER OF ANIMALS WITH SEIZURE ACTIVITY [6]: 10
DURATION OF INITIAL SEIZURE CORTEX mean ± s.e.m. [6]: 33 ± 3
DURATION OF INITIAL SEIZURE HIPPOCAMPUS mean ± s.e.m. [6]: 25 ± 4
In IPA/EtOH, 3-CBZ: order of impurity content [7]: maleate > HBr > HCl > Fumarate
In IPA/EtOH, 852U77: order of impurity content [7]: fumarate > HBr ≈HCl ≈maleate ≈tosylate
In IPA/EtOH, Total imp.: order of impurity content [7]: fumarate > maleate > HBr > HCl > tosylate
In water, 3-CBZ: order of impurity content [7]: HCl > HBr≈maleate≈fumarate
In water, 852U77: order of impurity content [7]: fumarate > HBr > maleate > HCl
In water, Total imp.: order of impurity content [7]: fumarate > HBr > HCl > tosylate > maleate
order of stability (assay, % potency) ([7]; closed vials): HBr>HCl≈tosylate>fumarate>maleate

CC(NC(C)(C)C)C(=O)c1cccc(Cl)c1 (stereo not shown) [Bupropion HCl, bupropion hydrochloride]
assay value, HCl versus HBr [1, 8]: lower than that for the HBr salt
Mean Number of Convulsions/Mouse ([4]; 75 mg/kg i.p. (as Bupropion HCl, HBr equimolar), range-finding study, N = 3/dose group): 0
Mean Intensity of Convulsions/Mouse % of Total: Mild [4, 10]: 0.0 % of Total
Mean Intensity of Convulsions/Mouse % of Total: Moderate [4, 10]: 33.3 % of Total
Mean Intensity of Convulsions/Mouse % of Total: Severe [4, 10]: 66.7 % of Total
Mean Number of Convulsions/Mouse [4, 10]: 0.2
numbers of mice that had convulsions in the dose group [4, 10]: 2/13
numbers of mice that had convulsions in the dose group ([4]; 100 mg/kg i.p., range-finding study, N = 3/dose group): 2/3
Mean Number of Convulsions/Mouse ([4]; 100 mg/kg i.p., range-finding study, N = 3/dose group, hydrochloride): 1.0
Mean Number of Convulsions/Mouse ([4]; 100 mg/kg i.p., second (main) study, N = 10/dose group, hydrochloride): 0
numbers of mice that had convulsions in the dose group ([4]; 150 mg/kg i.p., pooled data N = 13/dose group): 13/13
Mean Intensity of Convulsions/Mouse % of Total: Mild [4, 11]: 8.8 % of Total
Mean Intensity of Convulsions/Mouse % of Total: Moderate [4, 11]: 12.2 % of Total
Mean Intensity of Convulsions/Mouse % of Total: Severe [4, 11]: 79.0 % of Total
Mean Number of Convulsions/Mouse [4, 11]: 71.0
numbers of mice that had convulsions in the dose group ([4]; 150 mg/kg i.p., range-finding study, N = 3/dose group): 3/3
Mean Number of Convulsions/Mouse ([4]; 150 mg/kg i.p., range-finding study, N = 3/dose group, hydrochloride): 32.0
numbers of mice that had convulsions in the dose group ([4]; 150 mg/kg i.p., second (main) study, N = 10/dose group): 10/10
Mean Number of Convulsions/Mouse ([4]; 150 mg/kg i.p., second (main) study, N = 10/dose group, hydrochloride): 82.7
numbers of mice that had convulsions in the dose group ([4]; […] i.p., pooled data N = 13/dose group, hydrochloride): 13/13
numbers of mice that had convulsions in the dose group ([4]; […] i.p., range-finding study, N = 3/dose group): 3/3
numbers of mice that had convulsions in the dose group ([4]; […] i.p., second (main) study, N = 10/dose group, hydrochloride): 10/10
threshold for tonic convulsions ([4]; range finding study, i.p., hydrochloride): 100 mg/kg
Mean Number of Convulsions/Mouse, cumulative ([5]; 100 mg/kg, All, hydrochloride): 0.23
Mean Number of Convulsions/Mouse ([5]; 100 mg/kg, Mild, hydrochloride): 0.0
Total Number of convulsions ([5]; 100 mg/kg, Mild, hydrochloride): 0
Mean Number of Convulsions/Mouse ([5]; 100 mg/kg, Moderate): 0.08
Total Number of convulsions ([5]; 100 mg/kg, Moderate): 1
Mean Number of Convulsions/Mouse, cumulative ([5]; 100 mg/kg, Severe + Moderate, hydrochloride): 0.23
Mean Number of Convulsions/Mouse ([5]; 100 mg/kg, Severe, 120 min observation, hydrochloride): 0.15
Total Number of convulsions ([5]; 100 mg/kg, Severe, hydrochloride): 2
Mean Number of Convulsions/Mouse, cumulative ([5]; 150 mg/kg, All, hydrochloride): 71.00
Mean Number of Convulsions/Mouse ([5]; 150 mg/kg, Mild, hydrochloride): 6.23
Total Number of convulsions ([5]; 150 mg/kg, Mild, hydrochloride): 81
Mean Number of Convulsions/Mouse [5, 12]: 8.69
Total Number of convulsions [5, 12]: 113
Mean Number of Convulsions/Mouse, cumulative ([5]; 150 mg/kg, Severe + Moderate, hydrochloride): 64.77
Mean Number of Convulsions/Mouse [5, 13]: 56.08
Total Number of convulsions [5, 13]: 729
